Consider 11 compounds from patent US20110118314A1, “PIPERIDINE ANALOGS AS GLYCOGEN SYNTHASE ACTIVATORS” (priority 2009, published 2011).

The assay has as its system glycogen synthase. In words: Glycogen Synthase (GS) Assay. It counts as biochemical. To be noted: for EC50: compound concentration needed to give 50% maximum activation; for GS SC200: compound concentration needed to stimulate 200% of the enzyme activity. The protocol:
The following tests were carried out in order to determine the activity of the compounds of formula (I).
Twelve μL per well of substrate solution containing glycogen (4.32 mg/mL), 2.67 mM UDP-glucose, 21.6 mM phospho(enol)pyruvate and 2.7 mM NADH in 30 mM glycylglycine, pH 7.3 buffer was added into a polystyrene 384-well assay plate (BD Biosciences).
Compound solutions (8 μL/well) at various concentrations (0-300 μM) were added to the assay plate (columns 5-24). Compound solution contains 30 mM glycylglycine, pH 7.3, 40 mM KCl, 20 mM MgC12, 9.2% DMSO, with (columns 15-24) or without (columns 5-14) 20 mM glucose 6-phosphate.
Enzyme solution (12 μL/well) containing glycogen synthase (16.88 μg/mL), pyruvate kinase (0.27 mg/mL), lactate dehydrogenase (0.27 mg/mL) in 50 mM Tris-HCl, pH 8.0, 27 mM DTT and bovine serum albumin (BSA, 0.2 mg/mL) was added to the assay plate (columns 3-24). As a blank control, enzyme solution without glycogen synthase was added into the top half wells of columns 1-2. To the bottom half wells of columns 1-2 were added a known activator, glucose 6-phosphate (at final concentration 5 mM) in addition to the enzyme solution. The reaction mixture was incubated at room temperature. The assay plate was then read for absorbance at 340 nm on an Envision reader every 3 minutes up to a total of 15 minutes.
The enzyme activity (with or without compound) was calculated by the reaction rate and represented by the optical density change (SOD) per minute. Percent stimulation of glycogen synthase activity by a compound at various concentrations was calculated by the following formula: […]
where Rs is the reaction rate of the enzyme in the presence of compound and Rt is the reaction rate of the enzyme in the absence of compound.
SC200 is defined as the compound concentration that is needed to stimulate 200% of the enzyme activity. EC50 is defined as the compound concentration that is needed to give 50% maximum activation.
Compounds from Example 1 through Example 36 were assayed according to assay procedures described above and the results are listed in Table 1 below: […]

The term EC50 denotes the concentration that produces a half-maximal response. A higher EC50 goes with a less potent agent. In the case of `COc1cc(F)c(F)cc1-c1ccc(OCC2CCCN(C(=O)N3CCC[C@H]3C(=O)O)C2)cc1` (stereo partly drawn) [Example 27, (S)-1-[3-(4′,5′-Difluoro-2′-methoxy-biphenyl-4-yloxymethyl)-piperidine-1-carbonyl]-pyrrolidine-2-carboxylic acid], the half-maximal effective concentration (EC50) turned out to be 1.29 µM and the “GS SC200” value turned out to be 0.22 µM.

As to `COc1cc(F)c(F)cc1-c1ccc(OCC2CCCN(C(=O)C3CN(C(C)=O)CC3C(=O)O)C2)cc1` (stereo not shown) [Example 15, 1-Acetyl-4-[3-(4′,5′-difluoro-2′-methoxy-biphenyl-4-yloxymethyl)-piperidine-1-carbonyl]-pyrrolidine-3-carboxylic acid], a half-maximal response (EC50) required 5.78 µM and the “GS SC200” value came out at 3.65 µM.

In the case of `COc1cc(F)c(F)cc1-c1ccc(OC[C@@H]2CCCN(C(=O)N(CC(=O)O)Cc3ccccc3)C2)cc1` (single isomer, unassigned) [Example 23], the EC50 worked out at 0.95 µM and the “GS SC200” value stood at 0.23 µM.

`COc1cc(F)c(F)cc1-c1ccc(OC[C@H]2CCCN(C(=O)N(C)CC(=O)NS(C)(=O)=O)C2)cc1` [Example 32, (S)-3-(4′,5′-Difluoro-2′-methoxy-biphenyl-4-yloxymethyl)-piperidine-1-carboxylic acid (2-methanesulfonylamino-2-oxo-ethyl)-methyl-amide]: the EC50 worked out at 0.2 µM and the “GS SC200” value is 0.06 µM.

Turning to `COc1cc(F)c(F)cc1-c1ccc(OCC2CCCN(C(=O)C(C)C(=O)O)C2)cc1` (stereo not shown) [Example 17, 3-[3-(4′,5′-Difluoro-2′-methoxy-biphenyl-4-yloxymethyl)-piperidin-1-yl]-2-methyl-3-oxo-propionic acid], the response was half-maximal at 0.68 µM (EC50) and the “GS SC200” value worked out at 0.29 µM.

As for `CONC(=O)CC(=O)N1CCCC(COc2ccc(-c3cc(F)c(F)cc3OC)cc2)C1` (stereo not shown) [Example 5, 3-[3-(4′,5′-Difluoro-2′-methoxy-biphenyl-4-yloxymethyl)-piperidin-1-yl]-N-methoxy-3-oxo-propionamide], the EC50 amounted to 6.42 µM and the “GS SC200” value amounted to 0.99 µM.

`COc1cc(F)c(F)cc1-c1ccc(OCC2CCCN(C(=O)CC(N)=O)C2)cc1` (stereo not shown) [Example 20, 3-[3-(4′,5′-Difluoro-2′-methoxy-biphenyl-4-yloxymethyl)-piperidin-1-yl]-3-oxo-propionamide]: the EC50 was determined as 12.7 µM and the “GS SC200” value stood at 6.34 µM.

For `COc1cc(F)c(F)cc1-c1ccc(OCC2CCCN(C(=O)[C@H](CC(=O)O)N(C)C(C)=O)C2)cc1` (stereo partly drawn) [Example 13, (S)-3-(Acetyl-methyl-amino)-4-[3-(4′,5′-difluoro-2′-methoxy-biphenyl-4-yloxymethyl)-piperidin-1-yl]-4-oxo-butyric acid], the concentration for a half-maximal effect (EC50) was 12.3 µM and the “GS SC200” value came out at 2.12 µM.

Consider `COc1cc(F)c(F)cc1-c1ccc(OCC2CCN(C(=O)N(CCC(=O)O)Cc3ccccc3)C2)cc1` (stereo not shown) [Example 29, 3-{Benzyl-[3-(4′,5′-difluoro-2′-methoxy-biphenyl-4-yloxymethyl)-pyrrolidine-1-carbonyl]-amino}-propionic acid], for which the 50% effective concentration (EC50) came out at 10.4 µM and the “GS SC200” value stood at 2.55 µM.

As for `COc1cc(F)c(F)cc1-c1ccc(OCC2CCN(C(=O)N(C)CC(=O)NS(C)(=O)=O)C2)cc1` (stereo not shown) [Example 36, 3-(4′,5′-Difluoro-2′-methoxy-biphenyl-4-yloxymethyl)-pyrrolidine-1-carboxylic acid (2-methanesulfonylamino-2-oxo-ethyl)-methyl-amide], a half-maximal response (EC50) required 7.68 µM and the “GS SC200” value came out at 0.8 µM.

Regarding `COc1cc(F)c(F)cc1-c1ccc(OCC2CCCN(C(=O)N(CC(=O)O)Cc3ccccc3)C2)cc1` (stereo not shown) [Example 22, {Benzyl-[3-(4′,5′-difluoro-2′-methoxy-biphenyl-4-yloxymethyl)-piperidine-1-carbonyl]-amino}-acetic acid], the response was half-maximal at 2.65 µM (EC50) and the “GS SC200” value came out at 0.12 µM.
